According to the METLIN SMRT retention time set (Domingo-Almenara et al. 2019):

Experiment: gradient 5% acetonitrile 3 min, to 50% in 2 min, to 85% in 15 min, held 3 min, 100 µL/min
Settings: column: Zorbax Extend-C18 2.1 x 50 mm; eluents: water / acetonitrile, 0.1% formic acid
Procedure, shortened: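 Pure standards were analyzed in mixtures of ~100 molecules using HPLC coupled to a quadrupole time-of-flight mass spectrometer, in both positive and negative ionization mode. Separation used a Zorbax Extend-C18 column (2.1 × 50 mm, 1.8 μm) at 100 μL/min, with water and acetonitrile each containing 0.1% formic acid. Dead and dwell volumes were 40 μL and 900 μL, and data were collected over 3 months. Retention time was read from computationally picked adduct peaks, each inspected manually.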

SMILES	RP-LC retention time
O=C(Cc1cccc(F)c1)N1CCC2(CC1)N=C(c1ccc(Cl)cc1)NO2	912 s
COCCCNC(=O)CC1CCN(C(=O)c2[nH]c(C)c(C)c2C)CC1	667 s
CCOc1ccc(-c2ccc(=O)n(CCNC(=O)c3cc(C)oc3C)n2)cc1	765 s
Cc1cccc(-c2nnc(-c3nc(NCc4ccco4)c4ccccc4n3)o2)c1	1010 s
Cc1nc2c3ccccc3nc(NNC(=O)CCC(=O)N3CCN(c4ccccn4)CC3)n2n1	550 s
CCOC(=O)c1c(-c2ccccc2)csc1NC(=O)c1ccccc1C(=O)O	963 s
O=C(CN1CCN(Cc2ccc(F)cc2Cl)C1=O)N1CCN(C2CCCCC2)CC1	644 s
CCOc1ccccc1CNC(=O)C1CCN(S(=O)(=O)c2ccc3[nH]c(=O)ccc3c2)CC1	750 s
O=C(NCc1ccc(F)cc1Cl)c1cn(-c2ccc(NC(=O)C3CC3)cn2)cn1	814 s
CNC(=O)c1cc(-c2ccc(OC)cc2)n[nH]1	583 s
CCc1nc(-c2ccc(S(=O)(=O)N3CCC(C(=O)Nc4ccc5c(c4)OCCO5)CC3)cc2)no1	929 s
CC(C)n1c(=O)c(NCCc2ccccc2)nc2ccncc21	672 s
O=C(CN1C(=O)C2CCCCN2c2ccc(S(=O)(=O)N3CCCC3)cc21)N1CCOCC1 (configuration not stated)	750 s
CC1(C)C(=O)N(CC(=O)NCc2ccccc2Cl)c2ccccc21	881 s
O=S(=O)(Nc1ccc(Cl)cc1F)c1c[nH]c2ncccc12	740 s
Cc1nc(-c2cc(S(=O)(=O)NCC(=O)NCc3ccccc3Cl)c(C)s2)no1	870 s
Cc1ccc(S(=O)(=O)Nc2n[nH]nc2C(N)=O)cc1	603 s
CCCN1C(=O)c2cc(C(=O)NCc3ccc(C)cc3)nn2CC1(C)C(=O)NC1CCCC1 (configuration not stated)	854 s
CNC(=O)N1CC2(CCCCC2)CC1COCc1ccccc1 (configuration not stated)	1060 s

SMILES	RP-LC retention time
CCCCNC(=O)C1CCN(C(=O)c2ncn3c2COC(c2ccc(F)cc2)C3)CC1 (configuration not stated)	722 s
O=C(N[C@@H]1CN(c2ncccn2)C[C@H]1CO)c1nccc2ccccc12	613 s
O=C(c1cc(-c2cccnc2)n[nH]1)N1CCN(C(=O)C2CC2)CC1	565 s
COC(=O)c1ccc(C(=O)NCC2CCN(S(=O)(=O)C3CC3)CC2)cc1	732 s
O=C(Cn1nc2c(N3CCCCCC3)nccn2c1=O)NCc1ccc(F)cc1	691 s
CCOc1ccc(CNC(=O)C2CCN(S(=O)(=O)c3ccc4c(c3)NC(=O)CO4)CC2)cc1	880 s
O=C(NCc1csc(-c2ccccc2)n1)C1CCN(S(=O)(=O)c2ccc(Cl)s2)CC1	995 s
Cn1ncc2c3ccccc3n(CCCC(=O)NCCc3cccs3)c2c1=O	834 s
Cc1ccc(N2CC(c3noc(-c4cccc(C)c4)n3)CC2=O)cc1 (configuration not stated)	1090 s
NNC(=O)c1nnsc1-c1csnn1	657 s
O=C(NCc1cccnc1)c1cccn1-c1nnc(N2CCOCC2)s1	560 s
CCn1ccnc1CC1COc2ccccc2O1 (configuration not stated)	682 s
Cc1cc(C)n2nc(SCC(=O)NCCc3ccccc3)nc2n1	689 s
CS(=O)(=O)N1CCn2nc(-c3cccs3)cc21	681 s
CCOC(=O)CC1(NC(=O)N2CCN(c3nc4ccccc4nc3C(F)(F)F)CC2)CCCCC1	1230 s
O=C(Nc1cnc(N2CCC(N3CCCCC3)CC2)c(C(=O)O)c1)c1ccc(Br)cc1	637 s
COc1ccc(-n2nnc(-c3nsc(Nc4ccc(Cl)cc4)n3)c2C)cc1	1060 s
O=S(=O)(c1cccc(Cl)c1)N1CCC2(CCN(c3cccnc3)C2)C1 (configuration not stated)	680 s
Cc1noc([C@@H]2CN(Cc3ccc(OC(F)(F)F)cc3)C[C@H]2CO)n1	643 s

Second part, the compound after the results:

RP-LC retention time	SMILES
927 s	COc1ccc(/C=C/C(=O)Nc2ccccc2C(=O)O)cc1OC
1050 s	Cc1cc(NC(=O)C2CCCN(c3ccc(=O)n(-c4cccc(F)c4)n3)C2)ccc1Br (configuration not stated)
598 s	COCCN1C(=O)[C@H]2CN(Cc3cc(OC)cc(OC)c3)C[C@H]2C1=O
791 s	COc1ccccc1CC(=O)N1CCC2(CC1)N=C(c1ccccc1)NO2
664 s	COC(=O)CCc1sc(Nc2c(C)n[nH]c2C)nc1-c1ccc(OC)cc1
633 s	COc1cc2nccc(Oc3ccc(NC(=O)NC4CC4)c(Cl)c3)c2cc1C(N)=O
911 s	COc1ccc(CC(=O)N2CCCC2c2nc(-c3ccc(OC)c(OC)c3)no2)cc1Cl (configuration not stated)
815 s	CCn1cc(C)c(C(=O)O)c1CC(=O)N1CCc2ccccc21
1140 s	COc1ccc2sc(OC3CCN(C(=O)c4cnn(-c5ccccc5)n4)CC3)nc2c1
575 s	CCN1CCN(c2nc(-c3cccc(C)c3)nnc2C)CC1
578 s	COc1cc(OC)cc(C(=O)N2CCn3cnnc3C2)c1
1040 s	CCc1cccc(C)c1Nc1c(-c2cc(Br)ccc2O)nc2nc(C)cc(C)n12
759 s	Cc1ccc(C)c(CNC(=O)C2CCCN(c3cnc4nccnc4c3)C2)c1 (configuration not stated)
745 s	COc1ccc(NS(=O)(=O)c2cc3n(c2)CCN(CC(C)C)C3=O)cc1
710 s	COc1cc(OC)cc(C(=O)NC2CCN(c3cc(-c4ccccc4)[nH]n3)C2)c1 (configuration not stated)
987 s	COc1cccc(Cn2c(=O)c3sccc3n(Cc3nc(-c4ccccc4OC)no3)c2=O)c1
965 s	CCOc1ccc(-c2cn3ccn(-c4cc(C)cc(C)c4)c(=O)c3n2)cc1
705 s	Cc1ccccc1C(=O)NC1CCN(c2cc(-c3cccs3)[nH]n2)C1 (configuration not stated)
644 s	O=C1CCCc2c1cc(C(=O)NCc1cccnc1)c(=O)n2-c1ccc(C(F)(F)F)cc1
636 s	Cn1cc(-c2ccccc2)cc1C(=O)NCCCN1CCOCC1
794 s	Cc1ccc(C)c(NC(=O)N2C[C@H](c3nc(-c4cccnc4)no3)[C@@H](C)C2)c1
934 s	CCn1c(=O)n(CC(=O)N2CCOCC2)c(=O)c2cnc(-c3ccc(Cl)cc3)nc21
1140 s	CCOC(=O)c1nc(N2CCN(c3cc(Cl)ccc3C)CC2)c2ccccc2n1
1170 s	COc1ccc(NC(=O)c2nc(C3CCC3)oc2C)cc1C(F)(F)F
742 s	CCn1cc2c3c(cccc31)CN(C(=O)Nc1cc(OC)c(OC)c(OC)c1)CC2
616 s	COC(=O)C(NC(=O)N1CCCn2nc(-c3cccnc3)cc2C1)c1ccccc1 (configuration not stated)
808 s	Cc1nn(C)cc1CN(C)C(=O)c1cc2c(=O)n(CC(C)C)c3ccccc3n2n1
1170 s	COc1ccc(S(=O)(=O)N2CCCC(C(=O)N3CCC(Cc4ccccc4)CC3)C2)cc1Cl (configuration not stated)
616 s	O=C(Cn1cnc2ccccc2c1=O)N1CCC(Cn2cccn2)CC1
